Tests used:
recombinant c-Met kinase = recombinant c-Met kinase (Homo sapiens, UniProt P08581); test: Cell-free detection of c-Met kinase activity (ADP-Glo assay)
Protocol: The capacity of the novel compounds for inhibiting c-Met activity was evaluated using a cell-free assay.

VEGFR-2 = VEGFR-2 (Homo sapiens, UniProt P35968); test: Kinase activity against VEGFR-2; type: biochemical; conditions: for IC50: Table 3, inhibitory activity (IC50) against VEGFR-2, – = no inhibitory effect
Excerpt: It was consistent with the QSAR predicted results. […] Both of the proteins belong to the family of tyrosine kinase, which catalyse the phosphorylation of tyrosine. […] While subtle differences may make small molecules show different activities against the two kinases. So we superimposed the two kinases in three dimensions to explore the reason.

Sequence of recombinant c-Met kinase (P08581 25-1390): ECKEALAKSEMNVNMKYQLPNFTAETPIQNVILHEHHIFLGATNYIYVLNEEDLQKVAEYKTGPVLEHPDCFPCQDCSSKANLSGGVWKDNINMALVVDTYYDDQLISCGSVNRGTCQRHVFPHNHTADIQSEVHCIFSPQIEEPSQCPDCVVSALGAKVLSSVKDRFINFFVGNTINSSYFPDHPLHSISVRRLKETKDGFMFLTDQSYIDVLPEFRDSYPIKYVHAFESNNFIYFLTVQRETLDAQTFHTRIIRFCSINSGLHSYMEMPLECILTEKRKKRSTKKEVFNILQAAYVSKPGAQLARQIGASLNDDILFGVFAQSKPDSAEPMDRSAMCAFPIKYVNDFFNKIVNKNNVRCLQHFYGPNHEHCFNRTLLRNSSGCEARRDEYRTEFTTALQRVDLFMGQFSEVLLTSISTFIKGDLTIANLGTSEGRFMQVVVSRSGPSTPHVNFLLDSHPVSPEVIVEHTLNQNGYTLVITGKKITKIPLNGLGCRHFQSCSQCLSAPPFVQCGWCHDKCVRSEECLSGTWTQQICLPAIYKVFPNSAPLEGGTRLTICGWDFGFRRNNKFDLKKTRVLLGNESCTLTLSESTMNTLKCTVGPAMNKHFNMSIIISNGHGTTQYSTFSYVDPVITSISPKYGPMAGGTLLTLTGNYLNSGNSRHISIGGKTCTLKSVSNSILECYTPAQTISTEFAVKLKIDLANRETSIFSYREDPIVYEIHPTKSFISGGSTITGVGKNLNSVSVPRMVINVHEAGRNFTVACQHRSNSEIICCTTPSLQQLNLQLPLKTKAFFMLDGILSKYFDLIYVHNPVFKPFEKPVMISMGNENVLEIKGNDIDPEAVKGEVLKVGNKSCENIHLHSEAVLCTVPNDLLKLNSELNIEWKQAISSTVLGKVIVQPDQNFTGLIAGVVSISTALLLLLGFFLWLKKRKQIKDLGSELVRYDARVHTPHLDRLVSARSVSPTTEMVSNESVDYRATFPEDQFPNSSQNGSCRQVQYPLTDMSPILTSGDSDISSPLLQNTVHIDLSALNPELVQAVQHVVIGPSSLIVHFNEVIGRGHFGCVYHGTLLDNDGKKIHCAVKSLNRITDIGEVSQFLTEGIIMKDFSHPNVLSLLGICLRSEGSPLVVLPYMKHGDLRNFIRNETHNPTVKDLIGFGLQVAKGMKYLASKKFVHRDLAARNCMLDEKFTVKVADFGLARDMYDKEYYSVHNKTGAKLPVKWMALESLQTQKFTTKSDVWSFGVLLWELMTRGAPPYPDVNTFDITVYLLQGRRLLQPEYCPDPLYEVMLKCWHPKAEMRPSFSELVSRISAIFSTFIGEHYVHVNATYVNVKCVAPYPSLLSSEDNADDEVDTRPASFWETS
Sequence of VEGFR-2 (P35968 20-1356): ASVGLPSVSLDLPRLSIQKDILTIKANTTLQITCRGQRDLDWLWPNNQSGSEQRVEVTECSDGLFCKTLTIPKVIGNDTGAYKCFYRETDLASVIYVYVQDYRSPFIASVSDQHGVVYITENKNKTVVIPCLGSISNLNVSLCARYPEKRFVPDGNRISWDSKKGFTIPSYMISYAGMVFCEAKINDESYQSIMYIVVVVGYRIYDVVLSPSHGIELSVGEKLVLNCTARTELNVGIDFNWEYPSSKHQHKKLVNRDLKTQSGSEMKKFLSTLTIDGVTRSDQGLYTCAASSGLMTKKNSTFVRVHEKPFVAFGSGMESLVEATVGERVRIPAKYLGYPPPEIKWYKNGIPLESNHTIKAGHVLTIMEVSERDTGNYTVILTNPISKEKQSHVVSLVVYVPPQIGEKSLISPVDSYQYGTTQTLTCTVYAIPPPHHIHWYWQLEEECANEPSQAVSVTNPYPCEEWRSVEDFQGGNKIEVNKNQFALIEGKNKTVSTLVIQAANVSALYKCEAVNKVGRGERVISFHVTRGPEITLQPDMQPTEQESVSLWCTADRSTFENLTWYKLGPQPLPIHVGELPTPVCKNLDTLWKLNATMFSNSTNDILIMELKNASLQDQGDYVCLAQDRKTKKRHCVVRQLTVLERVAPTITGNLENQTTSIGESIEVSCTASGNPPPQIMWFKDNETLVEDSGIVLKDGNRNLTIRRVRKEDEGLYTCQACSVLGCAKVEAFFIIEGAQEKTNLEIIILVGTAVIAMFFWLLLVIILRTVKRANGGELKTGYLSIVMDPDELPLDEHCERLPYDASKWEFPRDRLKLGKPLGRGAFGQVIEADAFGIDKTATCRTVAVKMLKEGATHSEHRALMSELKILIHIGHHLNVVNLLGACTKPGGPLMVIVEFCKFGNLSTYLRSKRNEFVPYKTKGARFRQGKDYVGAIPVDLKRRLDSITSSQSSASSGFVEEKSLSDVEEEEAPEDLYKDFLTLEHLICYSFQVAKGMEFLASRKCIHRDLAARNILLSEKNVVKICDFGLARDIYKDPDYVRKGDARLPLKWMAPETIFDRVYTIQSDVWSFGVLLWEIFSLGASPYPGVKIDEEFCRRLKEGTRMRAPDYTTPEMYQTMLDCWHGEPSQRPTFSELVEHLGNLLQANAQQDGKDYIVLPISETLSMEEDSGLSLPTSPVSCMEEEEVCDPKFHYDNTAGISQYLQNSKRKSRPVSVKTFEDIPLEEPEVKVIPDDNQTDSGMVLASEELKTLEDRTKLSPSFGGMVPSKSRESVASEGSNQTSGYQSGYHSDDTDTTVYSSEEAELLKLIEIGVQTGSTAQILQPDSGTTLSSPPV

Row | Compound | melting point | IC50 (recombinant c-Met kinase) | activity against VEGFR-2 (in words) (VEGFR-2) | IC50 (VEGFR-2)
1 | CC(=O)Nc1cccc(-c2cn(CC(=O)N/N=C/c3ccc(O)cc3)nn2)c1 [Compound 10c, (E)-2-(4-(3-acetamidophenyl)-1H-1,2,3-triazol-1-yl)-N'-(4-hydroxybenzylidene) acetohydrazide] | 260 to 260.8 °C | 11.2 µM |  | 
2 | CC(=O)Nc1cccc(-c2cn(CC(=O)N/N=C/c3ccccc3O)nn2)c1 [Compound 10d, (E)-2-(4-(3-acetamidophenyl)-1H-1,2,3-triazol-1-yl)-N'-(2-hydroxybenzylidene) acetohydrazide] | 253.8 to 254.2 °C | 0.266 µM |  | 
3 | CC(=O)Nc1cccc(-c2cn(CC(=O)N/N=C/c3ccccc3[N+](=O)[O-])nn2)c1 [Compound 10e, (E)-2-(4-(3-acetamidophenyl)-1H-1,2,3-triazol-1-yl)-N'-(2-nitrobenzylidene)acetohydrazide] | 233.2 to 233.8 °C | 5.86 µM |  | 
4 | CC(=O)Nc1cccc(-c2cn(CC(=O)N/N=C/c3cc(Cl)ccc3O)nn2)c1 [Compound 10f, (E)-2-(4-(3-acetamidophenyl)-1H-1,2,3-triazol-1-yl)-N'-(5-chloro-2-hydroxybenzylidene) acetohydrazide] | 234.6 to 234.9 °C | 0.00119 µM |  | 0.139 µM
5 | CC(=O)Nc1cccc(-c2cn(CC(=O)N/N=C/c3cc(Br)cc(Br)c3O)nn2)c1 [Compound 10g, (E)-2-(4-(3-acetamidophenyl)-1H-1,2,3-triazol-1-yl)-N'-(3,5-dibromo-2-hydroxybenzylidene)acetohydrazide] | 237 to 237.5 °C | 8.93 µM |  | 
6 | CC(=O)Nc1cccc(-c2cn(CC(=O)N/N=C/c3cc(Br)ccc3O)nn2)c1 [Compound 10h, (E)-2-(4-(3-acetamidophenyl)-1H-1,2,3-triazol-1-yl)-N'-(5-bromo-2-hydroxybenzylidene) acetohydrazide] | 228.9 to 229.3 °C | > 12 µM |  | 
7 | COc1ccc(/C=N/NC(=O)Cn2cc(-c3cccc(NC(C)=O)c3)nn2)c(OC)c1 [Compound 10i, (E)-2-(4-(3-acetamidophenyl)-1H-1,2,3-triazol-1-yl)-N'-(2,4-dimethoxybenzylidene) acetohydrazide] | 210.9 to 211.3 °C | 0.00173 µM |  | 
8 | COc1ccc(/C=N/NC(=O)Cn2cc(-c3cccc(NC(C)=O)c3)nn2)cc1OC [Compound 10j, (E)-2-(4-(3-acetamidophenyl)-1H-1,2,3-triazol-1-yl)-N'-(3,4-dimethoxybenzylidene) acetohydrazide] | 230 to 230.6 °C | 0.00542 µM |  | 
9 | COc1cc(/C=N/NC(=O)Cn2cc(-c3cccc(NC(C)=O)c3)nn2)cc(OC)c1OC [Compound 10k, (E)-2-(4-(3-acetamidophenyl)-1H-1,2,3-triazol-1-yl)-N'-(3,4,5-trimethoxybenzylidene) acetohydrazide] | 210.2 to 212.9 °C | 0.0915 µM |  | 
10 | COc1cc(/C=N/NC(=O)Cn2cc(-c3ccccc3)nn2)cc(OC)c1OC [Compound 11k, (E)-2-(4-phenyl-1H-1,2,3-triazol-1-yl)-N'-(3,4,5-trimethoxybenzylidene)acetohydrazide] | 233.5 to 233.8 °C | > 12 µM |  | 

Continued, values first:

Row | melting point | IC50 (recombinant c-Met kinase) | activity against VEGFR-2 (in words) (VEGFR-2) | IC50 (VEGFR-2) | Compound
11 | 234.6 to 234.9 °C | 0.0017 µM |  |  | CC(=O)Nc1cccc(-c2cn(CC(=O)N/N=C/c3ccc(Cl)cc3)nn2)c1 [Compound 10a, (E)-2-(4-(3-acetamidophenyl)-1H-1,2,3-triazol-1-yl)-N'-(4-chlorobenzylidene)]
12 | 255.8 to 256.3 °C | 0.00037 µM | no activity | > 12 µM | CC(=O)Nc1cccc(-c2cn(CC(=O)N/N=C/c3cccc(Cl)c3)nn2)c1 [Compound 10b, (E)-2-(4-(3-acetamidophenyl)-1H-1,2,3-triazol-1-yl)-N'-(3-chlorobenzylidene)]
13 | 259 to 259.6 °C | > 12 µM |  |  | O=C(Cn1cc(-c2ccccc2)nn1)N/N=C/c1ccc(Cl)cc1 [Compound 11a, (E)-N'-(4-chlorobenzylidene)-2-(4-phenyl-1H-1,2,3-triazol-1-yl)acetohydrazide]
14 | 259 to 259.8 °C | 0.00341 µM |  | 0.0253 µM | O=C(Cn1cc(-c2ccccc2)nn1)N/N=C/c1cccc(Cl)c1 [Compound 11b, (E)-N'-(3-chlorobenzylidene)-2-(4-phenyl-1H-1,2,3-triazol-1-yl)acetohydrazide]
15 | 234 to 234.5 °C | 5.68 µM |  |  | O=C(Cn1cc(-c2ccccc2)nn1)N/N=C/c1ccc(O)cc1 [Compound 11c, (E)-N'-(4-hydroxybenzylidene)-2-(4-phenyl-1H-1,2,3-triazol-1-yl)acetohydrazide]
16 | 239 to 239.6 °C | > 12 µM |  |  | O=C(Cn1cc(-c2ccccc2)nn1)N/N=C/c1ccccc1O [Compound 11d, (E)-N'-(2-hydroxybenzylidene)-2-(4-phenyl-1H-1,2,3-triazol-1-yl)acetohydrazide]
17 | 225.2 to 225.6 °C | 4.28 µM |  |  | O=C(Cn1cc(-c2ccccc2)nn1)N/N=C/c1ccccc1[N+](=O)[O-] [Compound 11e, (E)-N'-(2-nitrobenzylidene)-2-(4-phenyl-1H-1,2,3-triazol-1-yl)acetohydrazide]
18 | 240 to 240.6 °C | > 12 µM |  | 9.86 µM | O=C(Cn1cc(-c2ccccc2)nn1)N/N=C/c1cc(Cl)ccc1O [Compound 11f, (E)-N'-(5-chloro-2-hydroxybenzylidene)-2-(4-phenyl-1H-1,2,3-triazol-1-yl)acetohydrazide]
19 | 231 to 231.5 °C | > 12 µM |  |  | O=C(Cn1cc(-c2ccccc2)nn1)N/N=C/c1cc(Br)cc(Br)c1O [Compound 11g, (E)-N'-(3,5-dibromo-2-hydroxybenzylidene)-2-(4-phenyl-1H-1,2,3-triazol-1-yl) acetohydrazide]
20 | 233 to 233.5 °C | 0.0119 µM |  |  | O=C(Cn1cc(-c2ccccc2)nn1)N/N=C/c1cc(Br)ccc1O [Compound 11h, (E)-N'-(5-bromo-2-hydroxybenzylidene)-2-(4-phenyl-1H-1,2,3-triazol-1-yl)acetohydrazide]
21 | 230 to 230.4 °C | > 12 µM |  | 0.849 µM | COc1ccc(/C=N/NC(=O)Cn2cc(-c3ccccc3)nn2)c(OC)c1 [Compound 11i, (E)-N'-(2,4-dimethoxybenzylidene)-2-(4-phenyl-1H-1,2,3-triazol-1-yl)acetohydrazide]
22 | 232.1 to 232.5 °C | 3.08 µM |  |  | COc1ccc(/C=N/NC(=O)Cn2cc(-c3ccccc3)nn2)cc1OC [Compound 11j, (E)-N'-(3,4-dimethoxybenzylidene)-2-(4-phenyl-1H-1,2,3-triazol-1-yl)acetohydrazide]

— PMC6968643, “Synthesis and biological evaluation of novel (E)-N'-benzylidene hydrazides as novel c-Met inhibitors through fragment based virtual screening” (Journal of Enzyme Inhibition and Medicinal Chemistry, 2020)
